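Compound exposure: 48 hours, 5 concentrations, 96-well plates. The concentration for 50% growth inhibition is given as GI50. At the TGI there is no net growth.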
Experiments:
Assay in all cases: inhibition of tumour cell growth, NCI panel, 48 h
[1] = tested on: HCC-2998 colon
[2] = tested on: HCT-116 colon
[3] = tested on: HOP-62 NSCLC
[4] = tested on: KM12 colon
[5] = tested on: MOLT-4 leukemia
[6] = tested on: NCI-H460 lung
[7] = tested on: OVCAR-5 ovarian
[8] = tested on: SF-539 CNS
[9] = tested on: SR leukemia
[10] = tested on: SW-620 colon

SMILES | TGI [1] | TGI [2] | TGI [3] | TGI [4] | TGI [5] | TGI [6] | TGI [7] | TGI [8] | TGI [9] | TGI [10] | GI50 [1] | GI50 [2] | GI50 [3] | GI50 [4] | GI50 [5] | GI50 [6] | GI50 [7] | GI50 [8] | GI50 [9] | GI50 [10]
C(/Cc1ccc2c(c1)OCO2)=N\NC1=NCCCN1 | > 100 µM | > 100 µM | > 100 µM | > 100 µM | 55.2 µM | > 100 µM | > 100 µM | > 100 µM | 70.2 µM | > 100 µM | – | – | – | – | – | – | – | – | – | –
Cc1ccc(-c2n[nH]c(=O)n2/N=C\c2ccccc2)cc1 | > 100 µM | > 100 µM | 62.1 µM | > 100 µM | > 100 µM | > 100 µM | > 100 µM | > 100 µM | > 100 µM | > 100 µM | – | – | – | – | – | – | – | – | – | –
CC1(C2CCC3(C)OC3C2)CO1 (stereo not drawn) | > 100 µM | > 100 µM | > 100 µM | > 100 µM | > 100 µM | > 100 µM | > 100 µM | > 100 µM | > 100 µM | > 100 µM | – | – | – | – | – | – | – | – | – | –
COc1c(C)c(C/C=C(\C)CC/C=C(\C)CCC=C(C)C)c(OC)c(OC)c1OC | > 100 µM | > 100 µM | > 100 µM | > 100 µM | > 100 µM | > 100 µM | > 100 µM | > 100 µM | > 100 µM | > 100 µM | – | – | – | – | – | – | – | – | – | –
CCN(CC)c1ccc2cc(-c3nc4ccccc4c(=O)[nH]3)c(=N)oc2c1 | > 100 µM | > 100 µM | > 100 µM | > 100 µM | > 100 µM | > 100 µM | > 100 µM | > 100 µM | > 100 µM | > 100 µM | – | – | – | – | – | – | – | – | – | –
Cc1ccc(/C(O)=C/c2nc3ccc([N+](=O)[O-])cc3nc2/C=C(\O)c2ccc(C)cc2)cc1 | > 100 µM | > 100 µM | 75.8 µM | > 100 µM | > 100 µM | > 100 µM | > 100 µM | > 100 µM | > 100 µM | > 100 µM | – | – | – | – | – | – | – | – | – | –
CCOP(=O)(OCC)/C(C#N)=C/c1cccn1Cc1ccccc1 | > 100 µM | 39.7 µM | > 100 µM | 78.3 µM | 75.5 µM | > 100 µM | > 100 µM | 36.1 µM | > 100 µM | 75.2 µM | – | – | – | – | – | – | – | – | – | –
CSc1ccc(/C=C2\N=C(c3ccccc3)N(/N=C/c3cc4cc(C)ccc4nc3Cl)C2=O)cc1 | 35.5 µM | 33.2 µM | > 100 µM | 33.8 µM | 37.2 µM | 57.7 µM | 74.9 µM | 43.3 µM | 44.2 µM | > 100 µM | – | – | – | – | – | – | – | – | – | –
S=C(NCc1ccccc1)N/N=C/c1ccccn1 | > 68.5 µM | 15.4 µM | 71.5 µM | > 100 µM | 16.6 µM | > 75.6 µM | > 100 µM | > 100 µM | > 21 µM | > 61.4 µM | – | – | – | – | – | – | – | – | – | –
O=C(/C=C/c1cccs1)c1ccccc1Cl | 32.2 µM | 25.7 µM | 32.1 µM | 20.4 µM | > 23.4 µM | 40.8 µM | 28.9 µM | > 69.1 µM | > 47.6 µM | 40.9 µM | – | – | – | – | – | – | – | – | – | –
Nc1nc(Cl)cc(NCC2(O)CCCC2)n1 | > 100 µM | > 100 µM | > 100 µM | > 100 µM | > 100 µM | > 100 µM | > 100 µM | > 100 µM | > 100 µM | > 100 µM | – | – | – | – | – | – | – | – | – | –
CC1OC2OC3C(OCC(O)C3O)OC(=O)[C@]34CCC(C)(C)CC3C3=CCC5[C@@]6(C)C[C@H](O)[C@H](OC7OC(CO)C(O)C(O)C7OC7OCC(OC(=O)CC(C)(O)CC(=O)OC1C(OC1OC(CO)C(O)C(O)C1O)C2O)C(O)C7O)[C@@](C)(CO)C6CC[C@@]5(C)[C@]3(C)CC4 (stereo partly drawn) | 8.52 µM | 16.5 µM | 8.75 µM | 19.3 µM | 21.3 µM | 22.7 µM | 18.9 µM | 26.8 µM | 17 µM | 20.3 µM | – | – | – | – | – | – | – | – | – | –
CC(C)(C)C1CC[C@H](O)[C@H]([C@H](O)CC2CC(=O)N(c3ccccc3)C(=O)C2)C1 (stereo partly drawn) | > 100 µM | > 100 µM | > 100 µM | > 100 µM | > 100 µM | > 100 µM | > 100 µM | > 100 µM | > 100 µM | > 100 µM | – | – | – | – | – | – | – | – | – | –
CC(=O)/C(=C\c1ccc(Cl)c(Cl)c1)C(=O)C(C)CN(C)C (stereo not drawn) | 9.66 µM | 6.79 µM | 41.1 µM | 5.35 µM | 6.6 µM | 48.9 µM | 23.8 µM | 13.4 µM | 5.21 µM | 9.01 µM | – | – | – | – | – | – | – | – | – | –
NCCOCC(N)C(=O)O (stereo not drawn) | > 100 µM | > 100 µM | > 100 µM | > 100 µM | > 100 µM | > 100 µM | > 100 µM | > 100 µM | > 100 µM | > 100 µM | – | – | – | – | – | – | – | – | – | –
O=C(CC1Sc2ccccc2NC1=O)Nc1ccc(Cl)cc1 (stereo not drawn) | > 100 µM | > 100 µM | > 100 µM | > 100 µM | > 100 µM | > 100 µM | > 100 µM | > 100 µM | > 100 µM | > 100 µM | – | – | – | – | – | – | – | – | – | –
O=[N+]([O-])c1cccnc1-n1cnc2ccccc21 | > 100 µM | > 100 µM | > 100 µM | > 100 µM | > 100 µM | > 100 µM | > 100 µM | > 100 µM | > 100 µM | > 100 µM | – | – | – | – | – | – | – | – | – | –
COC(=O)[C@@H]1CN(C(=O)c2ccccc2)C(=O)N1C(=O)OCc1ccccc1 | > 100 µM | > 100 µM | > 100 µM | > 100 µM | > 100 µM | > 100 µM | > 100 µM | > 100 µM | > 100 µM | > 100 µM | – | – | – | – | – | – | – | – | – | –
O=C(c1ccco1)N(C(=S)OC12CC3CC(CC(C3)C1)C2)c1ccccc1 | 72 µM | 48.7 µM | > 100 µM | > 100 µM | > 100 µM | > 100 µM | > 100 µM | 41.7 µM | 97.9 µM | > 100 µM | – | – | – | – | – | – | – | – | – | –
CCOC(=O)c1cn(C)c(=S)n2c1nc1ccccc12 | > 100 µM | > 100 µM | > 100 µM | > 100 µM | > 100 µM | > 100 µM | > 100 µM | > 100 µM | > 100 µM | > 100 µM | – | – | – | – | – | – | – | – | – | –
COc1ccc(-c2cc(C(O)C3CCCCN3)c3ccccc3n2)cc1 (stereo not drawn) | 3.7 µM | 21.5 µM | 24.3 µM | 15.3 µM | 13.6 µM | 10.4 µM | 24.8 µM | 23.5 µM | 1.46 µM | 25.2 µM | – | – | – | – | – | – | – | – | – | –
O=C(Nc1cccc(-n2cc(-c3ccncc3)c(-c3ccc(O)c(Cl)c3)n2)c1)c1cccc(C(F)(F)F)c1 | > 100 µM | > 100 µM | > 100 µM | 64.3 µM | > 100 µM | > 100 µM | > 100 µM | > 100 µM | 8.1 µM | > 100 µM | 4.37 µM | 3.24 µM | 8.86 µM | 2.67 µM | 2.96 µM | 3.42 µM | 23.7 µM | 3.27 µM | 1.6 µM | 5.81 µM
CCC(CC(C)C)Nc1ccc(NC(CC)CC(C)C)cc1 (stereo not drawn) | 36 µM | 28.3 µM | 33.3 µM | 30.2 µM | 44.5 µM | 40.9 µM | 29.1 µM | 33 µM | 39.7 µM | 30.1 µM | 19.3 µM | 14.1 µM | 18.6 µM | 15.6 µM | 17.8 µM | 17.5 µM | 15.6 µM | 17.1 µM | 15.1 µM | 15.6 µM
CC(C)C1(O)C(=O)N(c2c(F)c(F)c(F)c(F)c2F)C(=S)N1CCSc1ccccc1 (stereo not drawn) | 34.8 µM | 32.1 µM | 34.6 µM | 31.5 µM | 30.7 µM | 38.4 µM | 33 µM | 35.1 µM | 43 µM | 30.3 µM | – | – | – | – | – | – | – | – | – | –
C=CC1CN2CCC1CC2C(O)c1ccnc2ccccc12 (stereo not drawn) | > 100 µM | > 100 µM | > 100 µM | > 100 µM | > 100 µM | > 100 µM | > 100 µM | > 100 µM | > 100 µM | > 100 µM | > 100 µM | – | > 100 µM | – | – | – | – | – | > 100 µM | –
